From patent publication US9204640B2, “2-acyloxy-pyrrolin-4-ones” (BAYER INTELLECTUAL PROPERTY GMBH, priority 2011, dated 2015) come the findings set out here.

What all share (assay type): in vivo
The test system of one experiment is Digitaria sanguinalis. The experiment in a line: Herbicidal post-emergence action, DIGSA. The note with it: 80 g/ha. The protocol:
(§1) 2. Herbicidal Post-Emergence Action
(§2) • Seeds of monocotyledonous and dicotyledonous weed and crop plants are placed in sandy loam in wood-fiber pots, covered with soil and cultivated in a greenhouse under good growth conditions. 2 to 3 weeks after sowing, the test plants are treated at the one-leaf stage. The test compounds, formulated as wettable powders (WP), are then, with a water application rate of 600 l/ha (converted), with 0.2% of wetting agent added, sprayed at various dosages onto the green parts of the plants. After the test plants have been kept in the greenhouse under optimum growth conditions for about 3 weeks, the activity of the preparations is rated visually in comparison to untreated controls (herbicidal activity in percent: 100% activity=the plants have died, 0% activity=like control plants). • In addition to the compounds mentioned above, the following compounds show an activity of 90-100% against Alopecurus myosuroides, Avena fatua, Digitaria sanguinalis, Echinocloa crus-galli, Lolium multiflorum, Setaria viridis and Sorghum halapense when applied by the post-emergence method at 320 g/ha: I-a-2, I-a-4, I-a-5, I-a-7, I-a-9, I-a-10, I-a-11, I-a-12, I-a-13, I-a-15. • In addition to the compounds mentioned above, the following compounds show an activity of 90-100% against Alopecurus myosuroides, Avena fatua, Echinocloa crus-galli, Lolium multiflorum and Setaria viridis when applied by the post-emergence method at 80 g/ha: I-a-1, I-b-2.
(§3) • Seeds of monocotyledonous and dicotyledonous weed plants and crop plants are placed in wood-fiber pots in sandy loam and covered with soil. The test compounds, formulated in the form of wettable powders (WP) or emulsion concentrates (EC), are then, as an aqueous suspension with a water application rate of 600-800 l/ha (converted), with 0.1-0.2% of wetting agent added, applied at various dosages to the surface of the covering soil. • After the treatment, the pots are placed in a greenhouse and kept under good growth conditions for the test plants. […] Herbicidal Post-Emergence Action (Post) • Seeds of monocotyledonous and dicotyledonous weed and crop plants are placed in sandy loam in wood-fiber pots, covered with soil and cultivated in a greenhouse under good growth conditions. 2-3 weeks (stages 10-13 according to the BBCH scale) after sowing, the test plants are treated at a height of 5-10 cm. The test compounds, formulated as wettable powders (WP) or emulsion concentrates (EC), are then, with a water application rate of 600-800 l/ha (converted), with 0.1-0.2% of wetting agent added, sprayed at various dosages onto the green parts of the plants.
(§4) AVEFA: Avena fatua LOLMU: Lolium multiflorum SETVI: Setaria viridis CHEAL: Chenopodium album VIOTR: Viola tricolor VERPE: Veronica persica ORYSA: Oryza sativa TRZAS: Triticum aestivum ZEAMX: Zea mays ALOMY: Alopecurus myosuroides DIGSA: Digitaria sanguinalis ECHCG: Echinocloa crus-galli SORHA: Sorghum halepense AVESA: Avena sativa AMARE: Amaranthus retroflexus SINAL: Sinapis alba STEME: Stellaria media

In experiment [1] the test system is Lolium multiflorum. The experiment in a line: Herbicidal post-emergence action, LOLMU. The protocol:
as §1, §2, §3, §4

Experiment [2] concerns Veronica persica. The experiment can be described thus: Herbicidal pre-emergence action, VERPE.
From the text: (§5) 1. Herbicidal Pre-Emergence Action (Pre)
as §3, with “the plants. […]” for “the plants.”

The subject of experiment [3] is Lolium multiflorum. The experiment can be described thus: Herbicidal pre-emergence action, LOLMU.
From the text: (§6) 1. Herbicidal Pre-Emergence Action
(§7) • Seeds of monocotyledonous and dicotyledonous weed plants and crop plants are placed in wood-fiber pots in sandy loam and covered with soil. The test compounds, formulated in the form of wettable powders (WP), are then, as an aqueous suspension with a water application rate of 600 l/ha (converted), with 0.2% of wetting agent added, applied at various dosages to the surface of the covering soil. • After the treatment, the pots are placed in a greenhouse and kept under good growth conditions for the test plants. The visual assessment of the damage to the test plants is carried out after a trial period of about 3 weeks by comparison with untreated controls (herbicidal activity in percent: 100% activity=the plants have died, 0% activity=like control plants). • In addition to the compounds mentioned above, the following compounds show an activity of 90-100% against Alopecurus myosuroides, Digitaria sanguinalis, Echinocloa crus-galli, Lolium multiflorum, Setaria viridis and Sorghum halapense when applied by the pre-emergence method at 320 g/ha of a.i.: I-a-2, I-a-10, I-a-11, I-a-12.
as §5
(§8) • Seeds of monocotyledonous and dicotyledonous weed plants and crop plants are placed in wood-fiber pots in sandy loam and covered with soil. […]

The test system of experiment [4] is Setaria viridis. The experiment in a line: Herbicidal pre-emergence action, SETVI. The note with it: 320 g/ha.
From the text: as §6, §7, §5, §3, §4

In experiment [5] the test system is Veronica persica. The experiment in a line: Herbicidal post-emergence action, VERPE.
From the text: as §3, with “the plants. […]” for “the plants.”

Another experiment relates to Alopecurus myosuroides. The experiment in a line: Herbicidal post-emergence action, ALOMY. The note with it: 80 g/ha. How it is done: as §1, §2, §3, §4
The next experiment deals with Chenopodium album. The experiment in a line: Herbicidal pre-emergence action, CHEAL.
From the text: as §5
as §3, with “the plants. […]” for “the plants.”

Another experiment concerns Echinocloa crus-galli. The experiment can be described thus: Herbicidal post-emergence action, ECHCG. To be noted: 80 g/ha. How it is done:
as §1, §2, §3, §4

The test system of the next experiment is Sorghum halepense. The experiment can be described thus: Herbicidal post-emergence action, SORHA. How it is done:
as §1, §2, §3, §4

Experiment [6] deals with Setaria viridis. The experiment in a line: Herbicidal post-emergence action, SETVI. How it is done:
as §1, §2, §3, §4

Another experiment deals with Zea mays. The experiment in a line: Herbicidal post-emergence action, ZEAMX. The note with it: 80 g/ha.
From the text: as §3, §4

The subject of the next experiment is Oryza sativa. The experiment in a line: Herbicidal post-emergence action, ORYSA. To be noted: 80 g/ha.
From the text: as §3, §4

Experiment [7] deals with Avena fatua. The experiment can be described thus: Herbicidal post-emergence action, AVEFA. To be noted: 80 g/ha. The protocol: as §1, §2, §3, §4
The test system of a further experiment is Viola tricolor. The experiment can be described thus: Herbicidal pre-emergence action, VIOTR.
From the text: as §5
as §3, with “the plants. […]” for “the plants.”

Experiment [8] relates to Avena fatua. The experiment can be described thus: Herbicidal pre-emergence action, AVEFA.
From the text: as §6, §7, §5, §8

For a further experiment, the system named is Triticum aestivum. The experiment can be described thus: Herbicidal post-emergence action, TRZAS. The note with it: 80 g/ha.
From the text: as §3, §4

The next experiment has as its system Sinapis alba. The experiment in a line: Herbicidal post-emergence action, SINAL.
From the text: as §3, with “the plants. […]” for “the plants.”

The next experiment relates to Stellaria media. The experiment can be described thus: Herbicidal post-emergence action, STEME.
From the text: as §3, with “the plants. […]” for “the plants.”

A further experiment has as its system Amaranthus retroflexus. The experiment in a line: Herbicidal post-emergence action, AMARE.
From the text: as §3, with “the plants. […]” for “the plants.”

For a further experiment, the system named is Avena sativa. The experiment can be described thus: Herbicidal post-emergence action, AVESA.
From the text: as §3, with “the plants. […]” for “the plants.”

The next experiment concerns Myzus persicae. The experiment in a line: Myzus test (MYZUPE spray treatment). The note with it: application rate 500 g/ha, after 5 days, Chinese cabbage leaf discs. How it is done:
Myzus Test (MYZUPE Spray Treatment) [table] To produce a suitable preparation of active compound, 1 part by weight of active compound is mixed with the stated amount of solvent and emulsifier, and the concentrate is diluted with emulsifier-containing water to the desired concentration. Discs of Chinese cabbage (Brassica pekinensis) infected by all stages of the green peach aphid (Myzus persicae) are sprayed with an active compound preparation of the desired concentration. After 5 days, the effect in % is determined 100% means that all of the aphids have been killed; 0% means that none of the aphids have been killed. Myzus Test (MYZUPE Spray Treatment) To produce a suitable preparation of active compound, 1 part by weight of active compound is mixed with the stated amount of solvent and emulsifier, and the concentrate is diluted with emulsifier-containing water to the desired concentration. Discs of Chinese cabbage (Brassica pekinensis) infected by all stages of the green peach aphid (Myzus persicae) are sprayed with an active compound preparation of the desired concentration. After the desired period of time, the activity in % is determined. 100% means that all of the aphids have been killed; 0% means that none of the aphids have been killed.

As for `CCc1cc(Cl)cc(Cl)c1C1=C(OC(=O)C(C)(C)C)NC2(CCC(C)CC2)C1=O` (centres unmarked) [I-a-4], in the experiment on Digitaria sanguinalis, the “% Activity DIGSA” value is 100%. In addition, the “% Activity LOLMU” value in the experiment on Lolium multiflorum [1] (80 g/ha) and in the experiment on Lolium multiflorum [3] (320 g/ha) was 100% in each case. In addition, the “% Activity VERPE” value with Veronica persica [2] (320 g/ha) stood at 40%; in the experiment on Veronica persica [5] (80 g/ha) it was 60%. Further, the “% Activity SETVI” value is 90% with Setaria viridis [4] and 100% in the experiment with Setaria viridis [6] (80 g/ha). In addition, in the experiment with Alopecurus myosuroides, the “% Activity ALOMY” value is reported as 100%. Also, the “% Activity CHEAL” value in the experiment on Chenopodium album (320 g/ha) came to 50%. In addition, the “% Activity ECHCG” value with Echinocloa crus-galli is reported as 100%. For the same molecule, in the experiment with Sorghum halepense (80 g/ha), the “% Activity SORHA” value is on record as 100%. Besides, in the experiment on Zea mays, the “% Activity ZEAMX” value is 100%. The “% Activity ORYSA” value in the experiment with Oryza sativa stood at 100%. The figures for the “% Activity AVEFA” value in the experiment with Avena fatua [7] and in the experiment with Avena fatua [8] (320 g/ha) were 100% and 50%, respectively. Besides, the “% Activity VIOTR” value in the experiment with Viola tricolor (320 g/ha) was 70%. The “% Activity TRZAS” value in the experiment on Triticum aestivum came out at 100%.
Broadly, the inhibition is the drop in the measured response relative to a control, in per cent. The low end stands for a weak effect, the high end for a strong effect. Consider `CCc1cc(Cl)cc(OC)c1C1=C(OC(=O)C(C)(C)C)C2(CCC(OC)CC2)NC1=O` (centres unmarked), for which the inhibition at 320 g/ha with Sinapis alba (Sinapis alba, post-emergence) was found to be 0%; in the experiment on Lolium multiflorum [1] (Lolium multiflorum, post-emergence, 320 g/ha), 0%; in the experiment with Stellaria media (Stellaria media, post-emergence), 0%; in the experiment on Setaria viridis [6] (Setaria viridis, post-emergence, 320 g/ha), 0%; in the experiment on Amaranthus retroflexus (Amaranthus retroflexus, post-emergence) it was 0%; in the experiment with Avena sativa (Avena sativa, post-emergence), 0%.
As for `CCc1cccc(Cl)c1C1=C(OC(=O)C(C)(C)C)C2(CCC(C)CC2)NC1=O` (centres unmarked) [I-b-12 known from WO 04/065366], the inhibition at 80 g/ha stood at 30% in the experiment on Digitaria sanguinalis (Digitaria sanguinalis, post-emergence); 0% in the experiment with Lolium multiflorum [1] (Lolium multiflorum, post-emergence, 80 g/ha); 0% with Veronica persica [5] (Veronica persica, post-emergence); 0% with Alopecurus myosuroides (Alopecurus myosuroides, post-emergence); 40% in the experiment on Echinocloa crus-galli (Echinochloa crus-galli, post-emergence); 0% in the experiment with Sorghum halepense (Sorghum halepense, post-emergence). The inhibition at 80 g/ha stood at 30% with Setaria viridis [6] (Setaria viridis, post-emergence, 80 g/ha); 0% in the experiment with Zea mays (Zea mays, post-emergence); 0% with Oryza sativa (Oryza sativa, post-emergence); 0% with Avena fatua [7] (Avena fatua, post-emergence); 0% in the experiment with Triticum aestivum (Triticum aestivum, post-emergence).
In the case of `CCc1cc(Cl)cc(Cl)c1C1=C(OC(=O)C(C)(C)C)C2(CCC(C)CC2)NC1=O` (centres unmarked) [I-b-12 known from WO 04/065366], the inhibition at 320 g/ha was 0% in the experiment with Veronica persica [2] (Veronica persica, pre-emergence); 40% with Lolium multiflorum [3] (Lolium multiflorum, pre-emergence); 40% with Setaria viridis [4] (Setaria viridis, pre-emergence); 0% with Chenopodium album (Chenopodium album, pre-emergence); 0% with Viola tricolor (Viola tricolor, pre-emergence); 0% in the experiment with Avena fatua [8] (Avena fatua, pre-emergence).
As for `CCc1cc(Cl)cc(OC)c1C1=C(OC(=O)C(C)(C)C)NC2(CCC(OC)CC2)C1=O` (centres unmarked) [I-a-9], the “% Activity SINAL” value in the experiment with Sinapis alba (320 g/ha) amounted to 60%. Also, the “% Activity LOLMU” value with Lolium multiflorum [1] (320 g/ha) is listed as 100%. Also, the “% Activity STEME” value in the experiment with Stellaria media (320 g/ha) is reported as 40%. Further, the “effect in % (aphids killed)” value in the experiment on Myzus persicae stood at 80%. In the experiment on Setaria viridis [6] (320 g/ha), the “% Activity SETVI” value came to 100%. In addition, the “% Activity AMARE” value in the experiment on Amaranthus retroflexus (320 g/ha) stood at 40%. The “% Activity AVESA” value in the experiment on Avena sativa (320 g/ha) is 90%.
